Where “and” joins values, the source holds several entries; their conditions need not be identical. Identical values can stand only once.
Tests used:
Type in all cases: physicochemical
pH of the API = assay: pH of the API
Excerpt: Compound (Ia) HCl (API) is an acidic compound with an approximate pH of 2.5. Compound of Formula (I), in particular compound (Ia) as shown below, is used in all examples, and in particular the 2HCl salt of compound (Ia) (Compound (Ia) 2HCl).

[1] = Particle size distribution (Malvern Mastersizer)
Description: The particle size distribution of compound (Ia) 2HCl (API) was determined using a Malvern Mastersizer. D(0.1) means that 10% of the sample is present as particles smaller than this size. D(0.5) means that 50% of the sample is present as particles smaller than this size. D(0.9) means that 90% of the sample is present as particles smaller than this size.

[2] = Bulk and tap density, Carr's index
Description: Measurement of the bulk and tap density provides information on the flow properties and compressibility of the API. The bulk density is measured as the density of the material as it is “poured” or passively filled into a measuring vessel, whereas the tap density is a limiting density attained after “tapping in” the material. A Carr's index greater than 25 is considered to be an indication of poor flowability, and below 15, of good flowability.
Measurement of the bulk and tap density provides information on the flow and compressibility of the blend. Bulk and tap density and the subsequent Carr's index were determined on the Formulation 5 blend and the results are given in Table 13.

[3] = Solubility in dissolution media (sink conditions test); conditions: 37° C.
Description: Selection of the dissolution medium is based on the solubility data and the dose range in order to ensure that sink conditions are met. The term ‘sink conditions’ is defined as the volume of medium at least greater than three times that required to form a saturated solution of drug substance.
The sink conditions test was performed as per USP 38 <1092> in the following dissolution medium: • 1. HCl 0.01 N, • 2. Buffer pH 6.8, • 3. Water.
Solubility determinations were performed on 75 mg of Compound (Ia) HCl dissolved in 250 mL of different media at 37° C. and stirred slightly. The λmax was determined by UV scan between 200-400 nm. Refer to Table 18 for the results.

[4] = Intrinsic dissolution rate (IDR) of compressed disc; conditions: 200 mg disc, 100 rpm, 37° C.
Description: The IDR is determined by monitoring the drug release rate of a compressed disc of the pre-formulated drug. The IDR is independent of formulation effects and measures the intrinsic properties of the drug and salts as a function of dissolution media effects such as pH and ionic strength. A comparison of the IDR of the drug in water with that obtained in acid and alkali will provide a measure of the drug's ability to control its immediate microenvironment.
The IDR was determined by preparing a compressed disc containing 200 mg of Compound (Ia) 2HCl using slow compression. All metal surfaces were pre-lubricated using 4 drops of a 5% w/v solution of stearic acid in chloroform. The solvent was allowed to evaporate, the Compound (Ia) 2HCl added and the sample slowly compressed to 6 tonne. This pressure was maintained for 4 minutes to ensure adequate compression.
The discs were then rotated at 100 rpm, 25 mm from the bottom of a 1 litre flat bottomed dissolution vessel containing 1 litre of fluid maintained at 37° C. Manual sampling, with a sampling volume of 5 mL, was employed at 5, 10, 15, 30 and 60 minutes. The amount of drug released was then monitored, by HPLC. Compound (Ia) 2HCl was evaluated in 0.01N HCl (equivalent to gastric pH), phosphate buffer pH 6.8 (intestinal) and distilled water. Refer Table 19 for the percentage of Compound (Ia) 2HCl released.

[5] = API milled prior to GLP tablet manufacture (Table 16)

With `Cc1ccccc1-c1cc(N2CCN(C)CC2)ncc1C(=O)N(C)Cc1cc(C(F)(F)F)cc(C(F)(F)F)c1` [Compound (Ia) 2HCl] the “approximate pH” value (pH of the API) was ~2.5, the “Particle Size D (0.1)” value ([1]; API before milling (Table 1)) was 8.41 μm and the “Particle Size D (0.5)” value ([1]; API before milling (Table 1)) was 76.13 μm. For the same compound, the “Particle Size D (0.9)” value ([1]; API before milling (Table 1)) was 404.59 μm, the “Particle Size D (0.1)” value [1, 5] was 1.2 μm and the “Particle Size D (0.5)” value [1, 5] was 38.6 μm. For the same compound, the “Particle Size D (0.9)” value [1, 5] was 133.3 μm, the “Bulk Density” value [2] was 0.63 g/mL and the “Carr's Index” value [2] was 24.29%. For the same compound, the “Tap Density” value [2] was 0.83 g/mL, the Appearance ([3]; 75 mg in 250 mL 0.01N Hydrochloric Acid (pH 2.0), full cell: Clear, homogeneous, translucent to light yellow.) was “Clear,” and the Appearance ([3]; 75 mg in 250 mL Phosphate Buffer (pH 6.8), full cell: White, turbid, heterogeneous liquid.) was “White, turbid,”. For the same compound, the “Time to Dissolve” value ([3]; 75 mg in 250 mL Purified Water) was 21 s, the Appearance ([3]; 75 mg in 250 mL Purified Water, full cell: Clear, homogeneous, translucent to light yellow.) was “Clear,” and the “% Released (IDR)” value ([4]; 0.01N 2HCl, t = 0 mins) was 0%. The “% Released (IDR)” value ([4]; 0.01N 2HCl, t = 5 mins) was 80% and 70%, the “% Released (IDR)” value ([4]; 0.01N 2HCl, t = 10 mins) was 100% and 97% and the “% Released (IDR)” value ([4]; 0.01N 2HCl, t = 15 mins) was 101% and 98%. For the same compound, the “% Released (IDR)” value ([4]; 0.01N 2HCl, t = 30 mins) was 102% and 99%, the “% Released (IDR)” value ([4]; 0.01N 2HCl, t = 60 mins) was 101% and 98% and the “% Released (IDR)” value ([4]; Phosphate buffer pH 6.8, t = 0 mins) was 0%. For the same compound, the “% Released (IDR)” value ([4]; Phosphate buffer pH 6.8, t = 5 mins) was 68% and 60%, the “% Released (IDR)” value ([4]; Phosphate buffer pH 6.8, t = 10 mins) was 85% and 81% and the “% Released (IDR)” value ([4]; Phosphate buffer pH 6.8, t = 15 mins) was 72% and 83%. For the same compound, the “% Released (IDR)” value ([4]; Phosphate buffer pH 6.8, t = 30 mins) was 73% and 77%, the “% Released (IDR)” value ([4]; Phosphate buffer pH 6.8, t = 60 mins) was 59% and 60% and the “% Released (IDR)” value ([4]; Water, t = 0 mins) was 0%. The “% Released (IDR)” value ([4]; Water, t = 5 mins) was 84% and 71%, the “% Released (IDR)” value ([4]; Water, t = 10 mins) was 101% and 98% and the “% Released (IDR)” value ([4]; Water, t = 15 mins) was 101% and 100%. The “% Released (IDR)” value ([4]; Water, t = 30 mins) was 100% and 102% and the “% Released (IDR)” value ([4]; Water, t = 60 mins) was 100%.
